Results published in paper PMC3914206.

What was measured:
Format in all cases: binding
Details in all cases: Compound Concentration 10 µM
panel of 442 kinases [1] = target: T1, panel of 442 kinases (Homo sapiens, UniProt O96013)
T1 construct: purchased KINOMEscan
From the text: (§1) We assessed the selectivity of members of this scaffold using the KINOMEscan methodology across a near comprehensive panel of 442 kinases [[18,27]].

panel of 442 kinases [2] = target: T2, panel of 442 kinases (Homo sapiens, UniProt P30530)
T2 construct: purchased KINOMEscan
T2 sequence (P30530 26-894): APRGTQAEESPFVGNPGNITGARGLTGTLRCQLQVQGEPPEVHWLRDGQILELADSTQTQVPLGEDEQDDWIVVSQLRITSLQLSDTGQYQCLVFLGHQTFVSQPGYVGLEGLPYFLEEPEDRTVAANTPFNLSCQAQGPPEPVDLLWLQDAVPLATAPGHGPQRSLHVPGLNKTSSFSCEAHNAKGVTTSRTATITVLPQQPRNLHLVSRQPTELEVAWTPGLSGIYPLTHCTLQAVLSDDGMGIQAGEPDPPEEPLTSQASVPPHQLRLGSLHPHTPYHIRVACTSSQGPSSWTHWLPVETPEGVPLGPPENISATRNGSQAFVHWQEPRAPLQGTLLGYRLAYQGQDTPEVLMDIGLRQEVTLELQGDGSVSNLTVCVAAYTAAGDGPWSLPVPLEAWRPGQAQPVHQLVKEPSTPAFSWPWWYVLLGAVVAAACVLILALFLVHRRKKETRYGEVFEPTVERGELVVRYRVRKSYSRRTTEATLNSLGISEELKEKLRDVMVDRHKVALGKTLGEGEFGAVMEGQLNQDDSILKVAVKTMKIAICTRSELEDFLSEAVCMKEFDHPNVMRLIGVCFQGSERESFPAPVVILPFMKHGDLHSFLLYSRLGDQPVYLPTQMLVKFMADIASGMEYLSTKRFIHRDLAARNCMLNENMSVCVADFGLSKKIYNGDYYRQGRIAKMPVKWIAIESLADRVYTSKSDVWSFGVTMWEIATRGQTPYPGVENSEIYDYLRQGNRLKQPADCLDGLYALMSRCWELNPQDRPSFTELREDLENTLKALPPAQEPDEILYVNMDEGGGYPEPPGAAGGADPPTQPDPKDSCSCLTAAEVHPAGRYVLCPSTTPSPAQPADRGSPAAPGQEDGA
From the text: as §1

panel of 442 kinases [3] = target: T3, panel of 442 kinases (Homo sapiens, UniProt Q9HBH9)
T3 construct: purchased KINOMEscan
From the text: as §1

T1 sequence (O96013 whole entry): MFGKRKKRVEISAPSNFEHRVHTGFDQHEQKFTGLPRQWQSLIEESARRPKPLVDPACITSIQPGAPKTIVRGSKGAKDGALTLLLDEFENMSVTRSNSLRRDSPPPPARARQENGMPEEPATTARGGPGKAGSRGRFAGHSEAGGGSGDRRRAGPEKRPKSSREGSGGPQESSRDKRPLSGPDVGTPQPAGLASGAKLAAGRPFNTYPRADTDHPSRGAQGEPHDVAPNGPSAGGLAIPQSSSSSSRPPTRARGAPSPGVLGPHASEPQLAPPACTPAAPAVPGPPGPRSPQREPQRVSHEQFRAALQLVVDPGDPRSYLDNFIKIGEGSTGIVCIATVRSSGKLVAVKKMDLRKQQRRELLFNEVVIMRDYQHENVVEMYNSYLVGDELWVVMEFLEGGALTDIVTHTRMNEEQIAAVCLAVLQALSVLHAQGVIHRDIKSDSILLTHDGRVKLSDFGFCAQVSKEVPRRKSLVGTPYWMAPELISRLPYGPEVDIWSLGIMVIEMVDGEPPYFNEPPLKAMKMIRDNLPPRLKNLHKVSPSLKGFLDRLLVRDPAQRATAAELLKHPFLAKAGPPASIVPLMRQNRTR
T3 sequence (Q9HBH9 whole entry): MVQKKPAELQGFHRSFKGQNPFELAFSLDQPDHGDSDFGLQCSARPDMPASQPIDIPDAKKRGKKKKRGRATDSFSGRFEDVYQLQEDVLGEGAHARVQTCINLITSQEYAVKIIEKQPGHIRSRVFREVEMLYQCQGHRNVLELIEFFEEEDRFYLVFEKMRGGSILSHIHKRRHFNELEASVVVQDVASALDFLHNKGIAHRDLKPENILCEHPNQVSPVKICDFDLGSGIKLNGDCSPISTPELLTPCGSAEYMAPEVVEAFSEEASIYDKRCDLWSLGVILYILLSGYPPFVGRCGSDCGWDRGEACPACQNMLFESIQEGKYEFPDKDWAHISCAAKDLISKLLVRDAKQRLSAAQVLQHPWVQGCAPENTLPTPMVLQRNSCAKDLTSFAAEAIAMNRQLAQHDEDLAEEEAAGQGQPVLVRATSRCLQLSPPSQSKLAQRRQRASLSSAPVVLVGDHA

Structure (SMILES)	KINOMEscan: PAK4 (panel of 442 kinases [1])	KINOMEscan: AXL (panel of 442 kinases [2])	KINOMEscan: MKNK2 (panel of 442 kinases [3])
COc1cc(C(=O)N2CCC(N3CCN(C)CC3)CC2)ccc1Nc1ncc2c(n1)N(C)c1ccccc1C(=O)N2C [15 (LRRK2-IN-1)]	94	100	1.2
COc1cc(C(=O)N2CCC(N3CCN(C)CC3)CC2)ccc1Nc1ncc2c(n1)N1CCc3cccc(c31)C(=O)N2C [Compound 24]	–	–	8.6
COc1cc(C(=O)N2CCC(N3CCN(C)CC3)CC2)ccc1Nc1ncc2c(n1)N(C1CCCC1)c1ccccc1C(=O)N2C [Compound 25, 11-cyclopentyl-2-((2-methoxy-4-(4-(4-methylpiperazin-1-yl)piperidine-1-carbonyl)phenyl)amino)-5-methyl-5H-benzo[e]pyrimido[5,4-b][1,4]diazepin-6(11H)-one]	91	100	100
CCOc1cc(C(=O)N2CCC(N3CCN(C)CC3)CC2)ccc1Nc1ncc2c(n1)N(C1CCCC1)c1ccccc1C(=O)N2C [Compound 26]	100	93	100
